Results from patent publication EP0167553B1, “NEW THERAPEUTICAL APPLICATION OF AN INDANE DIONE DERIVATIVE AND PHARMACEUTICAL COMPOSITIONS INTENDED TO SAID UTILIZATION” (priority 1983, dated 1985).

Experiments:
[1] = system: Rats: Wistar femelles; assay: Atherogenic diet (modified Aubert technique): macroscopic examination of the aorta; format: in vivo, Rat Wistar; conditions: 100 mg/kg
Excerpt: (§1) La technique utilisée est celle, légèrement modifiée, de AUBERT D., FERAUD J.C., LACAZE B., PEPINO., PANAK E. et PODESTA M. "Athérogénèse expérimentale chez le Rat Wistar". ATHEROSCLEROSIS 2Q (1974) 263 - 280.
(§2) • - Rats: Wistar femelles, E.O.P.S. en provenance de l'élevage EVIC-CEBA. • - Poids corporel: 160 180 g au départ de l'étude • - Alimentation: UAR A03, enrichi en cholestérol (0,5 %) et en Acide chloique (0,5 %). • - Eau de boisson: eau de ville. • - 15 animaux par lot et par cage MAKROLON SAFI® de 59 x 38,5 cm sur litière de copeaux de bois blanc dépoussiérés. • - Cages placées dans un module animalerie climatisé (20°C * 1°C), à l'humidité constante (50 % ± 10 %). Durée d'éclairement: 12 heures par jour (7 h à 19 h). • - Administration des produits: Après 15 jours de régime athéromateux, on leur administre par voie orale pendant 4 jours 250 000 Ul/kg de vitamine D2 (Stérogyl 15 H) en solution dans l'huile d'olive. On administre ensuite les produits à étudier pendant 4 semaines dès la fin de l'administration de l'agent lésionnel.
En fin d'étude, tous les animaux sont sacrifiés par ponction subtotale du sang à l'aorte abdominale après anesthésie au pentobarbital sodique. On prélève le coeur, le foie et l'aorte sur laquelle on effectue la cotation du pouvoir athérogène. Pour ce faire, les aortes sont coupées longitudinalement puis étalées pour permettre une vue d'ensemble du revêtement endothélial depuis les valvules aortiques jusqu'à la bifurcation du tronc coeliaque (segment inférieur de l'aorte thoracique).
L'aorte est séparée en 2 zones: • - Zone 1: Valvules aortiques - premières artères intercostales • - Zone 2: premières artères intercostales - bifurcation du tronc coeliaque.
L'intensité des dépôts athéromateux est évaluée selon les critères suivants: • - Stade 0: Absence de dépôts • - Stade 1: Dépôts discrets ([…]) peu nombreux • - Stade 2: Dépôts discrets nombreux • - Stade 3: Dépôts importants (> 1 mm) nombreux • - Stade 4: Dépôts très importants ou très nombreux mais laissant quelques zones non infiltrées. • - Stade 5: Dépôts sur tout l'endothélium.
Deux paramètres sont à prendre en considération: • 1. Le nombre d'animaux présentant des lésions macroscopiques, dont le pourcentage d'animaux atteints. • 2. L'intensité des lésions observées cotées selon les indications fournies précédemment.

[2] = system: Rats: Wistar femelles; assay: Atherogenic diet (modified Aubert technique): mortality, body weight, tolerance, overall score; format: in vivo, Rat Wistar; conditions: 100 mg/kg
Procedure: as §2
(§3) L'étude porte sur 5 Lots de 15 rats (tableau N° IV)
• - Le comportement et l'[…] pondérale des animaux sont étudiés par l'observation quotidienne et les pesées hebdomadaires. L'étude de l'évolution pondérale ne montre pas de différence significative entre les différents lots. C'est un indice de bonne tolérance du traitement. • - La moralité est notée dans chaque lot; elle peut atteindre 30 % des animaux ce qui nécessite des lots de 15 animaux. L'administration chronique de 100 mg/kg de Clofibrate correspond à la dose maximale tolérée par le Rat sain selon nos expériences personnelles.
Les scores obtenus par les différents produits étudiés sont les suivants (Tableau V)

[3] = system: Rats: Wistar femelles; assay: Atherogenic diet (modified Aubert technique): histopathological examination; format: in vivo, Rat Wistar; conditions: 100 mg/kg; three parameters scored relative to Clofibrate
Excerpt: as §1, §2
Les aortes, les foies et les coeurs sont fixés au Bouitaqueux et inclus à la paraffine après passage par les alcools à concentration croissante et par le toluène.
Les foies sont colorés par la technique à l'hématéine-éosine. Les aortes sont colorées par: • - la technique à l'orcéine - vert lumière afin de mettre en évidence les altérations structurales des lames élastiques. • - la technique à l'acide périodique plus réactif de Schiff pour déceler les dépôts de mucopolysaccharides, • - la technique à l'hématéine plus éosine afin de mettre en évidence les dépôts de calcium.
L'intensité des altérations observées et le degré d'athéromatose sont indiquées par l'un des signes:
• - Pas d'athéromatose 0 • = Très léger degré d'athéromatose 0,5 • + Léger degré d'athéromatose 1 • ++ Moyen degré d'athéromatose 2 • +++Important degré d'athéromatose 3
Les zones athéromateuses sont dénombrées sur une longueur identique pour chacune des aortes examinées. […]

[4] = system: Rats: Wistar femelles; assay: Atherogenic diet (modified Aubert technique): biochemical examinations and atherogenic risk; format: in vivo, Rat Wistar; parameters: score général Biochimie / Risque athérogène Score Total: scale not given here; conditions: 100 mg/kg
Excerpt: as §1, §2, §3
En fin d'étude, on pratique sur tous les animaux survivants les examens suivants: • - Cholestérol total, • - Cholestérol estérifié, • - Cholestérol HDL • - Cholestérol LDL (évaluation), • - Lipides totaux, • - Triglycérides.

[5] = system: Rat Wistar; assay: Hyperlipidaemia induced by Triton WR 1339 injection; format: in vivo; parameters: Triglycérides, score par rapport au Procétofène 250 mg/kg: scale not given here
Excerpt: L'hyperlipidémie par injection de Triton WR 1339 (marque de fabrique), réalisée chez le Rat Wistar, est antagonisée ou diminuée par l'administration d'agents hypolipémiants.
• - Rats Wistar mâles. • - Poids corporel: 150 -180 grammes. • - Animaux E.O.P.S. (Exempts d'Organisme Pathogène Spécifique). • - Alimentation UAR A04 • - Eau de boisson à volonté • - 6 animaux par lot de traitement et par cage MAKROLON SAFI (marque de fabrique) 60 X 40 cm, sur litière de copeaux de bois dépoussiérés • - Cages placées dans un module animalerie climatisé (19 à 21°C) à degré hygrométrique constant (40 à 60 p.100), dans lequel l'air est renouvelé 10 fois par heure, 12 heures d'éclairement par jour.
• . - 18 h: mise à jeun. • . Temps 0 - administration du Triton WR 1339® (400 mg/kg IP.). • . + 10 mn: administration du produit étudié. • - + 6 h: 1er prélèvement sanguin au sinus rétro-orbitaire. • . + 24 h: 2ème prélèvement sanguin au sinus rétro-orbitaire.
L'essai comporte 8 lots dont un lot témoin (animaux sains) et un lot témoin triton (Tableau I).

[6] = 4 weeks, score relative to Clofibrate (Base 1)
[7] = 250 mg/kg, 6 heures after Triton
[8] = 250 mg/kg, 24 heures after Triton
[9] = 500 mg/kg, 6 heures after Triton
[10] = 500 mg/kg, 24 heures after Triton

With `CC(C)OC(=O)C(C)(C)Oc1ccc(C(=O)c2ccc(Cl)cc2)cc1` [Fenclofibrate] the “Animaux Atteints Score Clofibrate” value [1] was 0.92, the “Intensité des lésions Score Clofibrate” value [1] was 1.25 and the “Observations Macroscopiques Score Total” value [1] was 2.17. For the same compound, the “Animaux Atteints %” value ([1]; animals with macroscopic lesions) was 83.33%, the “Intensité des lésions Cotation” value ([1]; scale Stade 0 to Stade 5) was 1.83 and the “taux de mortalité” value ([2]; lots of 15 rats on atherogenic diet) was 3/15. The “Score Total” value ([2]; sum of Biochimie, Risque athérogène, Macroscopie, Histologie) was 6.51, the Histologie score [3] was 2.13 and the “Cholesterol LDL Cholesterol HDL Score/Clofibrate” value [4] was 0.16. For the same compound, the “Cholesterol T/ Cholesterol HDL Score/Clofibrate” value [4] was 0.07, the “Risque athérogène Score Total” value [4] was 0.23 and the “Cholesterol E Score” value [4, 6] was 0.40. For the same compound, the “Cholesterol HDL Score” value [4, 6] was 0.04, the “Cholesterol LDL Score” value [4, 6] was 0.16 and the “Cholesterol T Score” value [4, 6] was 0.02. For the same compound, the “Lipides totaux Score” value [4, 6] was 0.29, the “Cholesterol LDL Cholesterol HDL Score” value ([4]; atherogenic risk ratio) was 21.44 and the “Cholesterol T/ Cholesterol HDL Score” value ([4]; atherogenic risk ratio) was 25.32. The “score général Biochimie” value ([4]; sum of the individual biochemical scores) was 1.98.
For `CC(C)OC(=O)C(C)(C)Oc1ccc(C(=O)c2ccc(Cl)cc2)cc1` [Procétofène, reference compound], the “Chol. HDL/ LDL, score par rapport au Procétofène 250 mg/kg” value (from here on “Chol. HDL/ LDL”) [5, 7] was 1.00, the “Chol. Total, score par rapport au Procétofène 250 mg/kg” value (from here on “Chol. Total”) [5, 7] was 1.00 and the “Lipides Totaux, score par rapport au Procétofène 250 mg/kg” value [5, 7] was 1.00. The “Score Total par rapport au Procétofène 250 mg/kg” value [5, 7] was 4.00, the “Triglycérides, score par rapport au Procétofène 250 mg/kg” value [5, 7] was 1.00 and the “Chol. HDL/ LDL” value [5, 8] was 1.00. The “Chol. Total” value [5, 8] was 1.00, the “Lipides Total, score par rapport au Procétofène 250 mg/kg” value [5, 8] was 1.00 and the “Score Total par rapport au Procétofène 250 mg/kg” value [5, 8] was 4.00. For the same compound, the “Triglycérides, score par rapport au Procétofène 250 mg/kg” value [5, 8] was 1.00, the “Chol. HDL/ LDL” value [5, 9] was 1.53 and the “Chol. Total” value [5, 9] was 1.65. For the same compound, the “Lipides Totaux, score par rapport au Procétofène 250 mg/kg” value [5, 9] was 1.65, the “Score Total par rapport au Procétofène 250 mg/kg” value [5, 9] was 5.12 and the “Chol. HDL/ LDL” value [5, 10] was 0.30. For the same compound, the “Lipides Total, score par rapport au Procétofène 250 mg/kg” value [5, 10] was 0.85 and the “Score Total par rapport au Procétofène 250 mg/kg” value [5, 10] was 3.33.
